Reference: patent US9518974B2, “Sensor system for detecting organophosphorus residues by inducing coagulation of gold nanoparticles” (priority 2014, dated 2016)

Target: EGFP (Aequorea victoria, UniProt P42212, F64L/H231L/S65T)
Assay: Influence of organophosphorus pesticide on activity (fluorescence) of EGFP
Conditions: pesticide 10 ppb to 10 ppm, excitation 480 nm, emission 510 nm, control 10% methanol

With CCOP(=O)(Sc1ccccc1)Sc1ccccc1 [edifenphos] the “intensity of fluorescence of EGFP” value was “the same results”.

In the case of CC(C)OP(=O)(OC(C)C)SCc1ccccc1 [iprobenfos], the “intensity of fluorescence of EGFP” value is reported as “the same results”.
